From ChEMBL document CHEMBL4130496, “Anticancer properties of 4-thiazolidinone derivatives depend on peroxisome proliferator-activated receptor gamma (PPARγ)” (2017)
Calls of active or inactive are those of the source. The rule behind the calls is not given here.

Experiments:
[1] = test system: SCC-15; test: Induction of apoptosis in human SCC15 cells assessed as increase in caspase 3 activity at 50 uM after 24 hrs relative to control; type: functional
[2] = test system: SCC-15; test: Cytotoxicity against human SCC15 cells assessed as reduction in cell viability at 50 uM after 24 hrs by resazurin reduction assay relative to control; type: functional
[3] = test system: SCC-15; test: Downregulation of PPARgamma mRNA expression in human SCC15 cells at 10 uM after 4 hrs by RTqPCR analysis relative to control; type: functional
[4] = test system: SCC-15; test: Downregulation of PPARalpha mRNA expression in human SCC15 cells at 10 uM after 4 hrs by RTqPCR analysis relative to control; type: functional
[5] = test system: SCC-15; test: Downregulation of PPARbeta mRNA expression in human SCC15 cells at 10 uM after 4 hrs by RTqPCR analysis relative to control; type: functional
[6] = test system: SCC-15; test: Downregulation of PPARgamma mRNA expression in human SCC15 cells at 50 uM after 4 hrs by RTqPCR analysis relative to control; type: functional
[7] = test system: SCC-15; test: Induction of apoptosis in human SCC15 cells transfected with PPARalpha siRNA assessed as increase in caspase 3 activity at 50 uM after 24 hrs relative to control; type: functional, cell-based
[8] = test system: SCC-15; test: Downregulation of PPARalpha mRNA expression in human SCC15 cells at 50 uM after 4 hrs by RTqPCR analysis relative to control; type: functional
[9] = test system: SCC-15; test: Induction of apoptosis in human SCC15 cells transfected with PPARgamma siRNA assessed as increase in caspase 3 activity at 50 uM after 24 hrs relative to control; type: functional
[10] = test system: SCC-15; test: Cytotoxicity against human SCC15 cells transfected with PPARgamma siRNA assessed as reduction in cell viability at 50 uM after 24 hrs by resazurin reduction assay; type: functional
[11] = test system: SCC-15; test: Cytotoxicity against human SCC15 cells transfected with PPARgamma siRNA assessed as increase in LDH release at 50 uM after 24 hrs by colorimetric assay relative to control; type: functional, cell-based
[12] = test system: SCC-15; test: Cytotoxicity against human SCC15 cells assessed as increase in LDH release at 50 uM after 24 hrs by colorimetric assay relative to […]; type: functional
[13] = test system: SCC-15; test: Cytotoxicity against human SCC15 cells transfected with PPARalpha siRNA assessed as increase in LDH release at 50 uM after 24 hrs by colorimetric assay; type: functional, cell-based
[14] = test system: SCC-15; test: Downregulation of PPARbeta mRNA expression in human SCC15 cells at 50 uM after 4 hrs by RTqPCR analysis relative to control; type: functional
[15] = test system: SCC-15; test: Cytotoxicity against human SCC15 cells transfected with PPARbeta siRNA assessed as increase in LDH release at 50 uM after 24 hrs by colorimetric assay relative to control; type: functional, cell-based
[16] = test system: SCC-15; test: Cytotoxicity against human SCC15 cells transfected with PPARalpha siRNA assessed as reduction in cell viability at 50 uM after 24 hrs by resazurin reduction assay; type: functional, cell-based
[17] = test system: SCC-15; test: Induction of apoptosis in human SCC15 cells transfected with PPARbeta siRNA assessed as increase in caspase 3 activity at 50 uM after 24 hrs relative to control; type: functional
[18] = test system: SCC-15; test: Cytotoxicity against human SCC15 cells transfected with PPARbeta siRNA assessed as reduction in cell viability at 50 uM after 24 hrs by resazurin reduction assay; type: functional, cell-based

Row | SMILES | Activity [1] | Activity [2] | Activity [3] | Activity [4] | Activity [5] | Activity [6] | Activity [7] | Activity [8] | Activity [9] | Activity [10] | Activity [11] | Activity [12] | Activity [13] | Activity [14] | Activity [15] | Activity [16] | Activity [17] | Activity [18]
1 | O=C1c2ccccc2C(=O)c2sc3nc(=O)sc-3cc21 | 43.55% | 18.32% | 45.91% | 54.37% | 16.62% | 14.34% | Active | 26.99% | inactive | inactive | – | – | – | – | – | – | – | –
2 | O=C(Cn1c2c(sc1=O)[C@@H]1c3ccccc3OC[C@H]1CS2)Nc1ccc(Cl)c(Cl)c1 | – | 12.08% | 22.96% | 20.63% | 31.98% | – | – | – | – | inactive | inactive | 22.95% | Active | – | – | – | – | –
3 | CN(C)c1ccc(C2CC(c3ccccc3)=NN2C2=NC(=O)/C(=C3/C(=O)Nc4ccccc43)S2)cc1 (stereo not given) | 177.42% | 13.53% | 24.79% | 28.26% | 31.43% | 15.27% | Active | 18.66% | inactive | inactive | inactive | 44.97% | Active | 31.92% | inactive | – | – | –
4 | CCc1ccc(CCOc2ccc(CC3SC(=O)NC3=O)cc2)nc1 (stereo not given) [PIOGLITAZONE] | inactive | inactive | – | – | – | 17.33% | – | – | 43.03% | 31.42% | – | – | – | – | – | Active | >27.52% | Active
5 | CN(CCOc1ccc(CC2SC(=O)NC2=O)cc1)c1ccccn1 (stereo not given) [ROSIGLITAZONE] | – | inactive | 25.54% | – | – | – | – | – | – | – | – | – | – | – | – | Active | – | Active
